# According to US9113629B2, “4-amino-6-(4-substituted-phenyl)-picolinates and 6-amino-2-(4-substituted-phenyl)-pyrimidine-4-carboxylates and their use as herbicides” (DOW AGROSCIENCES LLC, priority 2013, dated 2015):
# Read-outs that look alike come from different tables or passages of the source.
# Tests used:
# [1] = test system: Key Broadleaf Weed and Crop Species; test: Post-emergent Test II herbicidal activity (Table 5); format: in vivo; details: post-emergence, 336 h, 14 days after application; for pest or weed control at 70 g/ha: application rate 70 g ai/ha; for pest or weed control at 140 g/ha: application rate 140 g ai/ha
# In short: (§1)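 Post-emergence foliar spray, 187 L/ha, track sprayer at 43 cm above canopy. Carrier: acetone/water/IPA/DMSO/Atplus 411F/Triton X-155. Plants at 1st–2nd true leaf; subirrigated afterwards; % injury scored visually at 14 d.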
# [2] = test system: Key Grass and Sedge Weeds as well as Grass Crops; test: Post-emergent Test II herbicidal activity (Table 6); format: in vivo; details: post-emergence, 336 h; for pest or weed control at 70 g/ha: 70 g ai/ha; for pest or weed control at 140 g/ha: 140 g ai/ha
# In short: as §1
# [3] = ABUTH: velvetleaf (Abutilon theophrasti), read-out: Visual Growth Reduction (%) 14 Days After Application, ABUTH
# [4] = AMARE: redroot pigweed (Amaranthus retroflexus), read-out: Visual Growth Reduction (%) 14 Days After Application, AMARE
# [5] = BRSNN: oilseed-rape, canola (Brassica napus), read-out: Visual Growth Reduction (%) 14 Days After Application, BRSNN
# [6] = CHEAL: lambsquarters (Chenopodium album), read-out: Visual Growth Reduction (%) 14 Days After Application, CHEAL
# [7] = EPHHL: wild poinsettia (Euphorbia heterophylla), read-out: Visual Growth Reduction (%) 14 Days After Application, EPHHL
# [8] = HELAN: sunflower (Helianthus annuus), read-out: Visual Growth Reduction (%) 14 Days After Application, HELAN
# [9] = VIOTR: wild pansy (Viola tricolor), read-out: Visual Growth Reduction (%) 14 Days After Application, VIOTR
# [10] = CYPES: yellow nutsedge (Cyperus esculentus), read-out: Visual Growth Reduction (%) 14 Days After Application, CYPES
# [11] = DIGSA: crabgrass (Digitaria sanguinalis), read-out: Visual Growth Reduction (%) 14 Days After Application, DIGSA
# [12] = ECHCG: barnyardgrass (Echinochloa crus-galli), read-out: Visual Growth Reduction (%) 14 Days After Application, ECHCG
# [13] = ORYSA: rice (Oryza sativa), crop, read-out: Visual Growth Reduction (%) 14 Days After Application, ORYSA
# [14] = SETFA: giant foxtail (Setaria faberi), read-out: Visual Growth Reduction (%) 14 Days After Application, SETFA
# [15] = SORVU: grain sorghum (Sorghum vulgare), read-out: Visual Growth Reduction (%) 14 Days After Application, SORVU
# [16] = TRZSS (wheat, Triticum aestivum), crop, read-out: Visual Growth Reduction (%) 14 Days After Application, TRZSS
# [17] = ZEAMX: maize, corn (Zea mays), crop, read-out: Visual Growth Reduction (%) 14 Days After Application, ZEAMX
compound,measurement,setting,value
Nc1c(F)c(-c2ccc(I)cc2F)nc(C(=O)O)c1Cl [Compound 169],pest or weed control at 70 g/ha,[1]; [3],85 to 94%
same,pest or weed control at 140 g/ha,[1]; [3],85 to 94%
same,pest or weed control at 70 g/ha,[1]; [4],95 to 100%
same,pest or weed control at 140 g/ha,[1]; [4],95 to 100%
same,pest or weed control at 70 g/ha,[1]; [5],95 to 100%
same,pest or weed control at 140 g/ha,[1]; [5],95 to 100%
same,pest or weed control at 70 g/ha,[1]; [6],95 to 100%
same,pest or weed control at 140 g/ha,[1]; [6],95 to 100%
same,pest or weed control at 70 g/ha,[1]; [7],95 to 100%
same,pest or weed control at 140 g/ha,[1]; [7],95 to 100%
same,pest or weed control at 70 g/ha,[1]; [8],95 to 100%
same,pest or weed control at 140 g/ha,[1]; [8],95 to 100%
same,pest or weed control at 70 g/ha,[1]; [9],95 to 100%
same,pest or weed control at 140 g/ha,[1]; [9],95 to 100%
same,melting point,,152 to 155 °C
same,pest or weed control at 70 g/ha,[2]; [10],95 to 100%
same,pest or weed control at 140 g/ha,[2]; [10],95 to 100%
same,pest or weed control at 70 g/ha,[2]; [11],75 to 84%
same,pest or weed control at 140 g/ha,[2]; [11],85 to 94%
same,pest or weed control at 70 g/ha,[2]; [12],75 to 84%
same,pest or weed control at 140 g/ha,[2]; [12],75 to 84%
same,pest or weed control at 70 g/ha,[2]; [13],30 to 44%
same,pest or weed control at 140 g/ha,[2]; [13],30 to 44%
same,pest or weed control at 70 g/ha,[2]; [14],95 to 100%
same,pest or weed control at 140 g/ha,[2]; [14],95 to 100%
same,pest or weed control at 70 g/ha,[2]; [15],95 to 100%
same,pest or weed control at 140 g/ha,[2]; [15],95 to 100%
same,pest or weed control at 70 g/ha,[2]; [16],30 to 44%
same,pest or weed control at 140 g/ha,[2]; [16],45 to 59%
same,pest or weed control at 70 g/ha,[2]; [17],95 to 100%
same,pest or weed control at 140 g/ha,[2]; [17],95 to 100%
